A short description of the data set: Liver microsome stability experiment (beagle dog). Format: in vitro ADME. As to conditions: for CLint scaled at 1 µM: beagle, dog, liver microsomes, pH 7.4, Beagle dog liver microsomes; for half-life at 1 µM: pH 7.4, Beagle dog liver microsomes. The procedure: This experiment aimed to evaluate the phase I metabolic stability of the compounds of the present disclosure in liver microsomes of SD rats, beagle dogs, cynomolgus monkeys, and humans.
• (1) Buffer preparation: 73.21 g of dipotassium hydrogen phosphate trihydrate and 10.78 g of potassium dihydrogen phosphate were dissolved in 4000 mL of ultrapure water. The pH of the solution was adjusted to within 7.40 ± 0.10 using 10% phosphoric acid or 1 M potassium hydroxide, resulting in a final concentration of 100 mM. • (2) Solution preparation and dilution: Stock solutions of the test compounds at a concentration of 10 mM were prepared in dimethyl sulfoxide (DMSO) and stored at 4 °C, and they were diluted into 100 µM working solutions with pure acetonitrile when used. A stock solution of the control compound testosterone at a concentration of 10 mM was prepared in DMSO and stored at -20 °C, and it was diluted into a 400 µM working solution with pure acetonitrile when used. • (3) Termination solution preparation: The termination solution was an acetonitrile solution containing an internal standard (terfenadine). The prepared termination solution was stored in a refrigerator at 2-8 °C. • (4) Liver microsome solution preparation: Liver microsomes from various species (SD rat, beagle dog, cynomolgus monkey, and human) were diluted into 20× working solutions using 100 mM potassium phosphate buffer. The final concentration of the liver microsomes in the reaction system was 0.5 mg/mL. • (5) Reduced nicotinamide adenine dinucleotide phosphate (NADPH) regeneration system preparation: Appropriate amounts of nicotinamide adenine dinucleotide phosphate (NADP), glucose-6-phosphate (G6P), magnesium chloride (MgCl2), and glucose-6-phosphate dehydrogenase (G6PDH) were weighed to prepare stock solutions at concentrations of 65.33 mM, 330 mM, 300 mM, and 250 Units/mL, respectively. The four stock solutions described above were each added to an appropriate amount of buffer, and the mixture was mixed well by gently inverting up and down. The final concentrations of NADP, G6P, MgCl2, and G6PDH in the NADPH regeneration system were 2.65 mM, 10.2 mM, 6.12 mM, and 2.45 Units/mL, respectively. • (6) Incubation process: The incubation was completed in 96-well plates. Several incubation plates were prepared and named T0, T5, T10, T20, T40, T60, and NCF60, respectively. The first 6 plates corresponded to reaction time points of 0 min, 5 min, 10 min, 20 min, 40 min, and 60 min, respectively. The NCF60 plate was incubated for 60 min with potassium phosphate buffer replacing the NADPH regeneration system solution. Samples under all conditions were prepared in triplicate.
2 µL of the test compound or control compound and 100 µL of microsome working solution (containing 1 mg/mL liver microsome protein) were added to each of the T0, T5, T10, T20, T40, T60, and NCF60 plates, and only the microsome working solution was added to the Blank 60 plate. The plates described above were then pre-incubated in a 37 °C water bath for about 10 min.
After the pre-incubation was completed, 98 µL of the NADPH regeneration system working solution was added to each sample well except for the NCF60 plate and the T0 plate to initiate the reaction, and 98 µL of potassium phosphate buffer was added to each well of the NCF60 plate. Therefore, for the sample wells containing the test sample or control substance working solution, the final concentrations of TC and testosterone in the reaction were 1 µM and 4 µM, respectively, the concentration of liver microsomes was 0.5 mg/mL, and the final concentrations of DMSO and acetonitrile in the reaction system were 0.01% (v/v) and 0.99% (v/v), respectively.
After incubation for an appropriate time (e.g., 5 min, 10 min, 20 min, 40 min, and 60 min), 600 µL of a termination solution (an acetonitrile solution containing 100 ng/mL […]) was added to each test compound sample well and control compound sample well to terminate the reaction. […]
Background: Microsomes from liver hold many membrane-bound enzymes, among them those of drug oxidation.

Setting [1] is: 0.5 mg/mL, 1 µM, read-out: CL(liver).
Where [2] appears, read: 0.5 mg/mL, 1 µM, read-out: CLint(liver).
Where [3] appears, read: read-out: Clearance rate classification.

Like-named read-outs stand apart in the source and are kept apart here.

As a reminder, the half-life is how long it takes for the measured level to halve. A lower half-life goes with rapid decline.

For `O=c1nc(OCc2cc(F)c(Oc3ccnc(C(F)(F)F)c3)c(F)c2)cc2n1C[C@H]1CCCN21` [Comparative Example 1, reference compound], the CLint scaled at 1 µM is, setting by setting: under setting [1], 10.5 mL/min/kg; under setting [2], 15.8 mL/min/kg; under setting [3], 13.2 to 72.1 mL/min/kg. This compound also yielded a half-life at 1 µM (0.5 mg/mL, 1 µM) of 2.1 h.
Regarding `O=c1nc(OCc2cc(F)c(Oc3ccnc(C(F)(F)F)c3)c(F)c2)cc2n1C[C@H]1CCN21` [Example 34-R], the CLint scaled at 1 µM under setting [1] was less than 8 mL/min/kg, the CLint scaled at 1 µM under setting [2] is less than 10.7 mL/min/kg and the CLint scaled at 1 µM under setting [3] is no more than 13.2 mL/min/kg. Also, the half-life at 1 µM (0.5 mg/mL, 1 µM) is greater than 3.11 h.

(Values after patent EP4748841A1, “BICYCLO[5,6] IMIDAZOLE PYRIMIDONE DERIVATIVE AND PREPARATION METHOD THEREFOR AND USE THEREOF” (Shujing Biopharma Co., Ltd, priority 2023, dated 2025).)
